Values quoted from earlier work in patent publication US7666888B2, “Substituted azole aromatic heterocycles as inhibitors of 11β-HSD-1” (Amgen Inc., priority 2006, dated 2010).

Key:
[1] = tested on: normal subjects; conditions: ingestion
[2] = tested on: healthy human volunteers
[3] = tested on: bone nodule formation; conditions: glucocorticoid effect

For `CC1(C)[C@@H](OC(=O)CCC(=O)O)CC[C@]2(C)[C@H]3C(=O)C=C4[C@@H]5C[C@@](C)(C(=O)O)CC[C@]5(C)CC[C@@]4(C)[C@]3(C)CC[C@@H]12` [carbenoxolone], which “reduce the intraocular pressure” value [1] is on record?
Its value is 20%.

And the Hepatic insulin sensitivity [2]?
The Hepatic insulin sensitivity was “improved”.

And the “negative effect on bone nodule formation” value [3]?
Its value is “blocked”.
